In the kinase profiling compilation of Christmann-Franck et al. (2016):

Experiments:
Assay in all cases: KINOMEscan competition binding
Conditions in all cases: compound 10.0 µM
ALK (human) = ALK (human) (UniProt Q9UM73)
BMPR1A (human) = BMPR1A (human) (UniProt P36894)
BRAF (human) = BRAF (human) (UniProt P15056)
CDK3 (human) = CDK3 (human) (UniProt Q00526)
CHEK1 (human) = CHEK1 (human) (UniProt O14757)
CIT (human) = CIT (human) (UniProt O14578)
CSF1R (human) = CSF1R (human) (UniProt P07333)
DCLK3 (human) = DCLK3 (human) (UniProt Q9C098)
EPHB2 (human) = EPHB2 (human) (UniProt P29323)
EPHB3 (human) = EPHB3 (human) (UniProt P54753)
EPHB4 (human) = EPHB4 (human) (UniProt P54760)
FES (human) = FES (human) (UniProt P07332)
FGFR3 (human) = FGFR3 (human) (UniProt P22607)
FLT4 (human) = FLT4 (human) (UniProt P35916)
INSRR (human) = INSRR (human) (UniProt P14616)
LIMK1 (human) = LIMK1 (human) (UniProt P53667)
MAP3K7 (human) = MAP3K7 (human) (UniProt O43318)
MAP4K2 (human) = MAP4K2 (human) (UniProt Q12851)
MAPK13 (human) = MAPK13 (human) (UniProt O15264)
MARK2 (human) = MARK2 (human) (UniProt Q7KZI7)
MET (human) = MET (human) (UniProt P08581)
MLTK (human) = MLTK (human) (UniProt Q9NYL2)
NTRK3 (human) = NTRK3 (human) (UniProt Q16288)
PHKG1 (human) = PHKG1 (human) (UniProt Q16816)
PHKG2 (human) = PHKG2 (human) (UniProt P15735)
PIM3 (human) = PIM3 (human) (UniProt Q86V86)
PKN2 (human) = PKN2 (human) (UniProt Q16513)
PRKCQ (human) = PRKCQ (human) (UniProt Q04759)
PRKX (human) = PRKX (human) (UniProt P51817)
[1] = test system: RET (human), P07949 [V804M]
RPS6KA1 KD1 (human) = RPS6KA1 KD1 (human) (UniProt Q15418)
RPS6KA4 KD2 (human) = RPS6KA4 KD2 (human) (UniProt O75676)
SRPK1 (human) = SRPK1 (human) (UniProt Q96SB4)
STK24 (human) = STK24 (human) (UniProt Q9Y6E0)
STK3 (human) = STK3 (human) (UniProt Q13188)
STK36 (human) = STK36 (human) (UniProt Q9NRP7)
TEC (human) = TEC (human) (UniProt P42680)
TNK1 (human) = TNK1 (human) (UniProt Q13470)
CPK1 (P.falciparum) = test system: CPK1 (P.falciparum)
MAP2K5 (human) = MAP2K5 (human) (UniProt Q13163)
VRK2 (human) = VRK2 (human) (UniProt Q86Y07)

Chain of CHEK1 (human) (O14757 whole entry, looked up): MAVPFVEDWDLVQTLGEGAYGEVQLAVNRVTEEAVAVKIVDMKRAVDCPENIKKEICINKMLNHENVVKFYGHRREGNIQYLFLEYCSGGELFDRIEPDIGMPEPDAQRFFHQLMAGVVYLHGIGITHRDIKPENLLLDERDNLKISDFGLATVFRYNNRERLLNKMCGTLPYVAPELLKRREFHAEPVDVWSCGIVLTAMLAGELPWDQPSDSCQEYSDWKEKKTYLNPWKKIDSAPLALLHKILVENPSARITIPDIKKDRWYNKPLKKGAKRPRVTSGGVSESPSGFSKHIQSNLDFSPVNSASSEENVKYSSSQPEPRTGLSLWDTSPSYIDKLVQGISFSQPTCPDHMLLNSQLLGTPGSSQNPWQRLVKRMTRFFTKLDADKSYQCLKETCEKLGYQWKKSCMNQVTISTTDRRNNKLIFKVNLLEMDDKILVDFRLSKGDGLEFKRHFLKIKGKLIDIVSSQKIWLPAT
Chain of TEC (human) (P42680 whole entry, looked up): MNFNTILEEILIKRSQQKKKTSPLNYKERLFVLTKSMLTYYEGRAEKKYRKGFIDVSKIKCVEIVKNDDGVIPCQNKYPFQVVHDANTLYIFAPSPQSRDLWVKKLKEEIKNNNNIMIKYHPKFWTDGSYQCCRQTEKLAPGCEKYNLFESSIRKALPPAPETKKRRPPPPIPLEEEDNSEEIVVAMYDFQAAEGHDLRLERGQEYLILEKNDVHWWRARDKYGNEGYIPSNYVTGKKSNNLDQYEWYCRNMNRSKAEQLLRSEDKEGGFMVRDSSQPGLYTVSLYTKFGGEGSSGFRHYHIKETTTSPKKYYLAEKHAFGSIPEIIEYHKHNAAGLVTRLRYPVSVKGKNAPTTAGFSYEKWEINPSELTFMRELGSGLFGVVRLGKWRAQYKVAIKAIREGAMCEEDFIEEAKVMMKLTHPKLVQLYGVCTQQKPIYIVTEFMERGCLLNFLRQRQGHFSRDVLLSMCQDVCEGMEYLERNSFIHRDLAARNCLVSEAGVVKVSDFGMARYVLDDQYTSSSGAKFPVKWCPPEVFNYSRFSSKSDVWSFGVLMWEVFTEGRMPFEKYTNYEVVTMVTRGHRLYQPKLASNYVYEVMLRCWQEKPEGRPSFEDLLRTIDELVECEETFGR
Chain of STK36 (human) (Q9NRP7 whole entry, looked up): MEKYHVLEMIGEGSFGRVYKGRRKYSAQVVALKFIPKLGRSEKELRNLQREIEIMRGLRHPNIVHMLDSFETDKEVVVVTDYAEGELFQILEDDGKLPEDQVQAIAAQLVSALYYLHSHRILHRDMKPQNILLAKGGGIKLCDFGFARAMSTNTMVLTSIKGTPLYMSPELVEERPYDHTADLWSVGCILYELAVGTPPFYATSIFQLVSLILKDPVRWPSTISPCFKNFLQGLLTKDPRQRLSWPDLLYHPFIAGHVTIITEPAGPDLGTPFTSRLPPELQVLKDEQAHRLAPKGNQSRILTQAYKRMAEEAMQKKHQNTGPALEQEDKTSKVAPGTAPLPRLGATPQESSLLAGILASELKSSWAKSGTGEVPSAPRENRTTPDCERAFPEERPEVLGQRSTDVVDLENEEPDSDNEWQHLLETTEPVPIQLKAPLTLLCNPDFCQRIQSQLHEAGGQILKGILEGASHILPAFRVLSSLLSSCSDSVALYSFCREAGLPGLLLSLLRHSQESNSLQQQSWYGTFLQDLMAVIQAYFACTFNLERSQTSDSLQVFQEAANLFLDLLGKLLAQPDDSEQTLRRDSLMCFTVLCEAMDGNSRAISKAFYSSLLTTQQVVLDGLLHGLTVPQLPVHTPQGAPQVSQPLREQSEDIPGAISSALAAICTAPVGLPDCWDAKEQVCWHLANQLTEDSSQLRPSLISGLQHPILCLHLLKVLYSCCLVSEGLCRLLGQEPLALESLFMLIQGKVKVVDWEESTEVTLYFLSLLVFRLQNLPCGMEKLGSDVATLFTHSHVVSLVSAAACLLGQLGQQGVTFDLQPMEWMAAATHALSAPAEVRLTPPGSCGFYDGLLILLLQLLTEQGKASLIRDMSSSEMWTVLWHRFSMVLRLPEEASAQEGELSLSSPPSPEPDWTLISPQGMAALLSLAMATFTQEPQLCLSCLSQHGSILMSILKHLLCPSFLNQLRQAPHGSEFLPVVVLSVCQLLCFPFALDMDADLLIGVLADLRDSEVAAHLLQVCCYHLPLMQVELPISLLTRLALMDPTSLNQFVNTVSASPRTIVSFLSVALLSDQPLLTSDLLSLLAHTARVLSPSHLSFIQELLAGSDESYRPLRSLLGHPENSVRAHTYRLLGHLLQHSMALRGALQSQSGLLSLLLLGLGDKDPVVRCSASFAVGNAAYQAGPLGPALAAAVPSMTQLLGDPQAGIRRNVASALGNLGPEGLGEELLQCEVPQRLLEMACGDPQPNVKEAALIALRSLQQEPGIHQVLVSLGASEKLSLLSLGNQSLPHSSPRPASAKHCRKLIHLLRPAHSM
Chain of NTRK3 (human) (Q16288 whole entry, looked up): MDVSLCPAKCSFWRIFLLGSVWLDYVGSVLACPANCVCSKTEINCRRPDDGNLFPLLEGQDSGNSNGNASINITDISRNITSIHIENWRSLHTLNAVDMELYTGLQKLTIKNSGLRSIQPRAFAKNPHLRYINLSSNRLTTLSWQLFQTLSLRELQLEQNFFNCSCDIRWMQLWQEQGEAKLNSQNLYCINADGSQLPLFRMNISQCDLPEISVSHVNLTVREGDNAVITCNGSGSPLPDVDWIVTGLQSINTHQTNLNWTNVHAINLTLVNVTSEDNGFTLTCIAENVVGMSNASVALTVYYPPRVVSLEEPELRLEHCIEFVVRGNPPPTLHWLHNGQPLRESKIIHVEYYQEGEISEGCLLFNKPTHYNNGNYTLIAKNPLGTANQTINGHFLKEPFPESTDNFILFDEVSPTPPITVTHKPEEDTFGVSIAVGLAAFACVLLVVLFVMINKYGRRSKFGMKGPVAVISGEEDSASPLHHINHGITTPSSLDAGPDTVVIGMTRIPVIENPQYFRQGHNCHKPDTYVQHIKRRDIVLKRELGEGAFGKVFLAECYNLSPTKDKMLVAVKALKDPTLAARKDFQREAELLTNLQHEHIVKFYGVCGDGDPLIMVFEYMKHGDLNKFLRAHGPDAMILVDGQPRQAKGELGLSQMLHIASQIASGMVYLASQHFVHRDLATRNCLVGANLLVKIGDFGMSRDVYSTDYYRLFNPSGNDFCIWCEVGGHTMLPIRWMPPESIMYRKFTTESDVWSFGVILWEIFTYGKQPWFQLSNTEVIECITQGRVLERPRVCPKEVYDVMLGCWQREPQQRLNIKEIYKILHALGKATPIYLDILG
Chain of MAP4K2 (human) (Q12851 whole entry, looked up): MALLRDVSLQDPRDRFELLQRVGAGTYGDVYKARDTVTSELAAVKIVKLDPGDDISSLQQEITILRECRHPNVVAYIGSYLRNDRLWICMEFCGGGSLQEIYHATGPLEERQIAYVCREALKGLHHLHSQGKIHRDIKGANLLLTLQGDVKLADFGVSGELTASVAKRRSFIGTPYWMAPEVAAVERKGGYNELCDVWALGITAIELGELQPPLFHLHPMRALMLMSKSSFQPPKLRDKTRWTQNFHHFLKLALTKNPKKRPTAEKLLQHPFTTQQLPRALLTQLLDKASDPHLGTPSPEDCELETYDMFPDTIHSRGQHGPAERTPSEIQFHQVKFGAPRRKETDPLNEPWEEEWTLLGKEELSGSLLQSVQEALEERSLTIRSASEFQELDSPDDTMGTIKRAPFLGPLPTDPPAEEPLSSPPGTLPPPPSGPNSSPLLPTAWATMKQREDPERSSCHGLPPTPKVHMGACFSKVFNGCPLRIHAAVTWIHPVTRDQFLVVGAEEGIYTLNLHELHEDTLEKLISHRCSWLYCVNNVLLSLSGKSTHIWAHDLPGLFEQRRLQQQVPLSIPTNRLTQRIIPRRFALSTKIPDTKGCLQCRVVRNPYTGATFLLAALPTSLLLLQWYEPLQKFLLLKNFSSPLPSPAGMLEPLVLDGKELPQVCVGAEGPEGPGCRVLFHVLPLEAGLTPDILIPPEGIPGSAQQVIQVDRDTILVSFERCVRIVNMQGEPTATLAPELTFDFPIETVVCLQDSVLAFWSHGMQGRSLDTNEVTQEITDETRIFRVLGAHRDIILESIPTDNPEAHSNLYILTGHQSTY
Chain of BMPR1A (human) (P36894 whole entry, looked up): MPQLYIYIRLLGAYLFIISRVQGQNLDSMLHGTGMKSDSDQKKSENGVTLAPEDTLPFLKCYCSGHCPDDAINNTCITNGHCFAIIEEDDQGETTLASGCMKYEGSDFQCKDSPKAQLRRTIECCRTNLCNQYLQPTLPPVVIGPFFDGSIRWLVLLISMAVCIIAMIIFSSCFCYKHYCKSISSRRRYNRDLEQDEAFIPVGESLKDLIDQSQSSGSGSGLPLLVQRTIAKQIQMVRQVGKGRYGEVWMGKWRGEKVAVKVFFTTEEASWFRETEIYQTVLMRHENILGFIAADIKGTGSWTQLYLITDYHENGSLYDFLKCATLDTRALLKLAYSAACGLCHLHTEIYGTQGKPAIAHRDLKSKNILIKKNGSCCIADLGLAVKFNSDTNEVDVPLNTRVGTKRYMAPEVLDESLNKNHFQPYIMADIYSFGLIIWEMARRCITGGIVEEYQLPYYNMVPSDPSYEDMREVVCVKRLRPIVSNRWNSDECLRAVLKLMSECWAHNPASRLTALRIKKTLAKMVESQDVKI

C=CC(=O)Nc1ccc(CN(C(=O)Nc2c(Cl)c(OC)cc(OC)c2Cl)c2cc(Nc3ccc(N4CCN(C)CC4)cc3)ncn2)cc1
kinase still bound, per cent of control (ALK (human)): 100% | kinase still bound, per cent of control (BMPR1A (human)): 100% | kinase still bound, per cent of control (BRAF (human)): 100% | kinase still bound, per cent of control (CDK3 (human)): 100% | kinase still bound, per cent of control (CHEK1 (human)): 100% | kinase still bound, per cent of control (CIT (human)): 100% | kinase still bound, per cent of control (CSF1R (human)): 0% | kinase still bound, per cent of control (DCLK3 (human)): 100% | kinase still bound, per cent of control (EPHB2 (human)): 100% | kinase still bound, per cent of control (EPHB3 (human)): 100% | kinase still bound, per cent of control (EPHB4 (human)): 100% | kinase still bound, per cent of control (FES (human)): 4% | kinase still bound, per cent of control (FGFR3 (human)): 4.5% | kinase still bound, per cent of control (FLT4 (human)): 0.1% | kinase still bound, per cent of control (INSRR (human)): 18% | kinase still bound, per cent of control (LIMK1 (human)): 100% | kinase still bound, per cent of control (MAP3K7 (human)): 100% | kinase still bound, per cent of control (MAP4K2 (human)): 100% | kinase still bound, per cent of control (MAPK13 (human)): 4.9% | kinase still bound, per cent of control (MARK2 (human)): 100% | kinase still bound, per cent of control (MET (human)): 100% | kinase still bound, per cent of control (MLTK (human)): 100% | kinase still bound, per cent of control (NTRK3 (human)): 100% | kinase still bound, per cent of control (PHKG1 (human)): 100% | kinase still bound, per cent of control (PHKG2 (human)): 100% | kinase still bound, per cent of control (PIM3 (human)): 100% | kinase still bound, per cent of control (PKN2 (human)): 100% | kinase still bound, per cent of control (PRKCQ (human)): 100% | kinase still bound, per cent of control (PRKX (human)): 100% | kinase still bound, per cent of control [1]: 100% | kinase still bound, per cent of control (RPS6KA1 KD1 (human)): 100% | kinase still bound, per cent of control (RPS6KA4 KD2 (human)): 100% | kinase still bound, per cent of control (SRPK1 (human)): 100% | kinase still bound, per cent of control (STK24 (human)): 18% | kinase still bound, per cent of control (STK3 (human)): 100% | kinase still bound, per cent of control (STK36 (human)): 100% | kinase still bound, per cent of control (TEC (human)): 7.2% | kinase still bound, per cent of control (TNK1 (human)): 28%

CN(C)C/C=C/C(=O)Nc1ccc(C(=O)Nc2cccc(Nc3nccc(-c4cccnc4)n3)c2)cc1
kinase still bound, per cent of control (ALK (human)): 100% | kinase still bound, per cent of control (BMPR1A (human)): 36% | kinase still bound, per cent of control (CDK3 (human)): 96% | kinase still bound, per cent of control (CHEK1 (human)): 100% | kinase still bound, per cent of control (CIT (human)): 38% | kinase still bound, per cent of control (CPK1 (P.falciparum)): 100% | kinase still bound, per cent of control (CSF1R (human)): 100% | kinase still bound, per cent of control (DCLK3 (human)): 100% | kinase still bound, per cent of control (EPHB2 (human)): 100% | kinase still bound, per cent of control (EPHB3 (human)): 75% | kinase still bound, per cent of control (EPHB4 (human)): 100% | kinase still bound, per cent of control (FES (human)): 99% | kinase still bound, per cent of control (FGFR3 (human)): 96% | kinase still bound, per cent of control (FLT4 (human)): 97% | kinase still bound, per cent of control (INSRR (human)): 100% | kinase still bound, per cent of control (LIMK1 (human)): 60% | kinase still bound, per cent of control (MAP2K5 (human)): 41% | kinase still bound, per cent of control (MAP3K7 (human)): 9.2% | kinase still bound, per cent of control (MAP4K2 (human)): 9% | kinase still bound, per cent of control (MAPK13 (human)): 100% | kinase still bound, per cent of control (MARK2 (human)): 73% | kinase still bound, per cent of control (MET (human)): 100% | kinase still bound, per cent of control (MLTK (human)): 62% | kinase still bound, per cent of control (NTRK3 (human)): 65% | kinase still bound, per cent of control (PHKG1 (human)): 96% | kinase still bound, per cent of control (PHKG2 (human)): 56% | kinase still bound, per cent of control (PIM3 (human)): 78% | kinase still bound, per cent of control (PKN2 (human)): 79% | kinase still bound, per cent of control (PRKCQ (human)): 68% | kinase still bound, per cent of control (PRKX (human)): 100% | kinase still bound, per cent of control [1]: 74% | kinase still bound, per cent of control (RPS6KA1 KD1 (human)): 91% | kinase still bound, per cent of control (RPS6KA4 KD2 (human)): 80% | kinase still bound, per cent of control (SRPK1 (human)): 26% | kinase still bound, per cent of control (STK24 (human)): 100% | kinase still bound, per cent of control (STK3 (human)): 100% | kinase still bound, per cent of control (STK36 (human)): 99% | kinase still bound, per cent of control (TEC (human)): 100% | kinase still bound, per cent of control (TNK1 (human)): 20% | kinase still bound, per cent of control (VRK2 (human)): 90%

C=CC(=O)Nc1cc(-n2c(=O)ccc3cnc4ccc(-c5cn[nH]c5)cc4c32)ccc1C
kinase still bound, per cent of control (ALK (human)): 100% | kinase still bound, per cent of control (BMPR1A (human)): 12% | kinase still bound, per cent of control (CDK3 (human)): 100% | kinase still bound, per cent of control (CHEK1 (human)): 100% | kinase still bound, per cent of control (CIT (human)): 42% | kinase still bound, per cent of control (CPK1 (P.falciparum)): 11% | kinase still bound, per cent of control (CSF1R (human)): 90% | kinase still bound, per cent of control (DCLK3 (human)): 100% | kinase still bound, per cent of control (EPHB2 (human)): 100% | kinase still bound, per cent of control (EPHB3 (human)): 100% | kinase still bound, per cent of control (EPHB4 (human)): 100% | kinase still bound, per cent of control (FES (human)): 100% | kinase still bound, per cent of control (FGFR3 (human)): 89% | kinase still bound, per cent of control (FLT4 (human)): 65% | kinase still bound, per cent of control (INSRR (human)): 100% | kinase still bound, per cent of control (LIMK1 (human)): 100% | kinase still bound, per cent of control (MAP2K5 (human)): 0.3% | kinase still bound, per cent of control (MAP3K7 (human)): 0.35% | kinase still bound, per cent of control (MAP4K2 (human)): 9.4% | kinase still bound, per cent of control (MAPK13 (human)): 76% | kinase still bound, per cent of control (MARK2 (human)): 83% | kinase still bound, per cent of control (MET (human)): 89% | kinase still bound, per cent of control (MLTK (human)): 6.9% | kinase still bound, per cent of control (NTRK3 (human)): 93% | kinase still bound, per cent of control (PHKG1 (human)): 58% | kinase still bound, per cent of control (PHKG2 (human)): 79% | kinase still bound, per cent of control (PIM3 (human)): 42% | kinase still bound, per cent of control (PKN2 (human)): 82% | kinase still bound, per cent of control (PRKCQ (human)): 100% | kinase still bound, per cent of control (PRKX (human)): 100% | kinase still bound, per cent of control [1]: 68% | kinase still bound, per cent of control (RPS6KA1 KD1 (human)): 87% | kinase still bound, per cent of control (RPS6KA4 KD2 (human)): 94% | kinase still bound, per cent of control (SRPK1 (human)): 39% | kinase still bound, per cent of control (STK24 (human)): 95% | kinase still bound, per cent of control (STK3 (human)): 100% | kinase still bound, per cent of control (STK36 (human)): 79% | kinase still bound, per cent of control (TEC (human)): 6% | kinase still bound, per cent of control (TNK1 (human)): 73% | kinase still bound, per cent of control (VRK2 (human)): 88%

CCN(CC)CCCCNc1ncc2cc(-c3cc(OC)cc(OC)c3)c(NC(=O)NC(C)(C)C)nc2n1
kinase still bound, per cent of control (ALK (human)): 100% | kinase still bound, per cent of control (BRAF (human)): 100% | kinase still bound, per cent of control (CDK3 (human)): 100% | kinase still bound, per cent of control (CHEK1 (human)): 100% | kinase still bound, per cent of control (CIT (human)): 100% | kinase still bound, per cent of control (CSF1R (human)): 6.6% | kinase still bound, per cent of control (DCLK3 (human)): 100% | kinase still bound, per cent of control (EPHB2 (human)): 100% | kinase still bound, per cent of control (EPHB3 (human)): 100% | kinase still bound, per cent of control (EPHB4 (human)): 100% | kinase still bound, per cent of control (FES (human)): 100% | kinase still bound, per cent of control (FGFR3 (human)): 0.05% | kinase still bound, per cent of control (FLT4 (human)): 6% | kinase still bound, per cent of control (INSRR (human)): 100% | kinase still bound, per cent of control (LIMK1 (human)): 100% | kinase still bound, per cent of control (MARK2 (human)): 100% | kinase still bound, per cent of control (MET (human)): 100% | kinase still bound, per cent of control (MLTK (human)): 100% | kinase still bound, per cent of control (NTRK3 (human)): 100% | kinase still bound, per cent of control (PHKG1 (human)): 100% | kinase still bound, per cent of control (PHKG2 (human)): 100% | kinase still bound, per cent of control (PIM3 (human)): 100% | kinase still bound, per cent of control (PKN2 (human)): 100% | kinase still bound, per cent of control (PRKCQ (human)): 100% | kinase still bound, per cent of control (PRKX (human)): 100% | kinase still bound, per cent of control (RPS6KA1 KD1 (human)): 100% | kinase still bound, per cent of control (RPS6KA4 KD2 (human)): 100% | kinase still bound, per cent of control (SRPK1 (human)): 100% | kinase still bound, per cent of control (STK24 (human)): 7% | kinase still bound, per cent of control (STK3 (human)): 100% | kinase still bound, per cent of control (STK36 (human)): 100% | kinase still bound, per cent of control (TEC (human)): 100% | kinase still bound, per cent of control (TNK1 (human)): 100%
